We go through 4 molecules from patent US20260001928A1 (CORTERIA PHARMACEUTICALS, priority 2022, published 2026).

*1 amine or outer side, *2 acyl side, *3 side chain or, on linkers, in order; H or OH if unused. Where a SMILES comes first, the peptide text is derived from it. Where no end group is shown, it is not given here. Side-chain parts run from the residue outwards. [ ]: non-standard residue; d: D form. The star is where a group is joined. C20 diacid = O=C(O)CCCCCCCCCCCCCCCCCCC(=O)*; C18 diacid = O=C(O)CCCCCCCCCCCCCCCCC(=O)*; C16 diacid = O=C(O)CCCCCCCCCCCCCCC(=O)*; γGlu = O=C(O)[C@H](CCC(=O)[*:2])N[*:1]; NMeI = CC[C@H](C)[C@H](NC)C(=O)O; Ac5c = NC1(C(=O)O)CCCC1; Api = NC1(C(=O)O)CCNCC1; AEEA = NCCOCCOCC(=O)O; Aib = CC(C)(N)C(=O)O

In assay [1] the target is T1, human CRF2a receptor (Homo sapiens, UniProt Q13324).
T1 construct: expressed in transfected cells; host or cells: TeloHEAC cells
T1 sequence (Q13324 1-411): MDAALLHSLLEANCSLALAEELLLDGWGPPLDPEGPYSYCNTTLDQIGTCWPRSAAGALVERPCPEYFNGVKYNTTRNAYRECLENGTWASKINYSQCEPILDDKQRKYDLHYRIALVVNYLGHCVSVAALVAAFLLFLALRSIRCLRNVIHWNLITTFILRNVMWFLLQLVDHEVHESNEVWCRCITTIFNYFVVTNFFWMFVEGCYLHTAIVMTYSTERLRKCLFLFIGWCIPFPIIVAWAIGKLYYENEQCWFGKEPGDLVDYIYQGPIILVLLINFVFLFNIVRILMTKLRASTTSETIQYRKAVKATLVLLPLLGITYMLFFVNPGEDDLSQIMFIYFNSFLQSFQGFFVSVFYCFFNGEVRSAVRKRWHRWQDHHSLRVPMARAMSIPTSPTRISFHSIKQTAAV
Put plainly: Activity at human CRF2a receptor, cAMP functional assay in TeloHEAC cells. As to conditions: TeloHEAC cells stably expressing human CRF2a receptor, relative to urocortin 2 (100 nM = 100%). It is filed as cell-based. As for the experimental part: Agonism of compounds for human corticotropin-releasing factor 2a (CRF2a receptor) was determined by a functional assay measuring cAMP modulation upon treatment of TeloHEAC cells stably expressing human CRF2a receptor. Compounds were dissolved at 0.5 mM in 100% DMSO and serially diluted (1:2) in 100% DMSO for 16 dilutions. 20 nL of each dilution was then transferred to 384-well assay plate using an acoustic droplet ejection instrument. 5 μL of compound buffer (1×HBSS; 20 mM HEPES,) were then added to each well. Prior to use, frozen cells were thawed quickly at 37° C. and washed (5 min at 900 rpm) with 20 mL cell buffer (1×HBSS; 20 mM HEPES). Cells were resuspended in cell buffer added with 2 mM IBMX and adjusted to a cell density of […]. 5 μL cells (final dell density: 10000 cells/well) were dispensed in the compound-containing 384-well assay plate and incubated for 30 minutes 37° C. The cAMP level in treated cells was determined using the Cisbio 62AM4PEC kit according to manufacturer's instruction. Finally, plates were incubated for 1 h at room temperature before measuring the fluorescence ratio between 665/620 nm. The percent activity value (E %) was calculated by setting 100 nM of urocortin 2 (UCN2) as 100%. The in vitro potency of the compounds was quantified by determining the concentrations that caused 50% activation of maximal response (EC50) relative to urocortin 2.

For assay [2], the target named is T2, CFR1R receptor (Homo sapiens, UniProt P34998).
T2 construct: host or cells: CHO-K1 (clone 2)
T2 sequence (P34998 24-415): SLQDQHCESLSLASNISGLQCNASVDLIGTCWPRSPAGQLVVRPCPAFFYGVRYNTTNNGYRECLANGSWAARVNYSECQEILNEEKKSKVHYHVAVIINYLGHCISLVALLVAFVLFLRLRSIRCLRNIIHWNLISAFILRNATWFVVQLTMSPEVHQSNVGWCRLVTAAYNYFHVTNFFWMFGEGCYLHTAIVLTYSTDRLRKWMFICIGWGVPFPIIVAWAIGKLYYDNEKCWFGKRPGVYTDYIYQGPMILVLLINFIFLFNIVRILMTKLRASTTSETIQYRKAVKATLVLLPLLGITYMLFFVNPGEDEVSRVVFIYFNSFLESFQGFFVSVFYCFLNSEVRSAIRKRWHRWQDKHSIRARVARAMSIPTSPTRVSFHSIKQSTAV
Description: Activity at anti-target CFR1R receptor, cAMP assay in CRF1R-overexpression CHO-K1 cells. It is filed as cell-based. As to conditions: 100% = Sauvagine at 100 nM; for EC50: cAMP. Put shortly: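 The method mirrors that used with TeloHAEC cells. Here, thawed clone 2 cells seeded at 4000 cells/well are tested, and 100 nM Sauvagine sets the top of the activation scale.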
Background: Changes in cAMP serve as a functional read-out for many G protein-coupled receptors.

Assay [3] has as its target T3, CRF1R receptor (UniProt P34998 24-415, limits assumed).
T3 sequence (looked up): T2 sequence (P34998 24-415)
Put plainly: cell-based or functional assay.

Assay [4] addresses human corticotropin-releasing factor 2a (CRF2a receptor) (human), Q13324. Put plainly: cell-based or functional assay.

As a reminder, the EC50 is the concentration needed to bring the measured effect to its halfway point. In the case of `CC[C@H](C)[C@H](NC(C)=O)C(=O)N[C@H](C(=O)N[C@@H](CC(C)C)C(=O)N[C@@H](CO)C(=O)N[C@@H](CC(C)C)C(=O)N[C@@H](CC(=O)O)C(=O)N[C@@H](C(=O)N1CCC[C@H]1C(=O)N[C@H](C(=O)NCC(=O)N[C@@H](CC(C)C)C(=O)N[C@@H](CCCCNC(=O)CC[C@H](NC(=O)CCCCCCCCCCCCCCCCCCC(=O)O)C(=O)O)C(=O)N[C@@H](CCCCN)C(=O)N[C@H](C(=O)N[C@@H](CC(C)C)C(=O)N[C@@H](CC(C)C)C(=O)N[C@@H](CCC(=O)O)C(=O)N[C@@H](CCC(N)=O)C(=O)N[C@@H](CCC(=O)O)C(=O)N[C@@H](CCCCN)C(=O)N[C@@H](CCC(N)=O)C(=O)N[C@@H](CCCCN)C(=O)N[C@@H](CCCCN)C(=O)N[C@@H](CCC(N)=O)C(=O)N[C@@H](CCCNC(=N)N)C(=O)N[C@@H](CCC(=O)O)C(=O)N[C@@H](CCC(N)=O)C(=O)N[C@@H](C)C(=O)N[C@@H](CCC(=O)O)C(=O)N[C@H](C(=O)N[C@@H](CC(N)=O)C(=O)NC(C)(C)C(=O)N[C@@H](CCC(N)=O)C(=O)N[C@H](C(=O)N[C@@H](CC(C)C)C(=O)N[C@@H](C)C(=O)N[C@@H](CCC(N)=O)C(=O)N[C@H](C(N)=O)C(C)C)[C@@H](C)CC)[C@@H](C)O)[C@@H](C)CC)[C@@H](C)CC)C(C)C)C(C)C` [compound 226] (Ac-IVLSLD[dV]PIGLK([γGlu-C20 diacid])KILLEQEKQKKQREQAETN[Aib]QILAQV-NH2), the response in assay [1] was half-maximal at 0.18 nM (EC50). In assay [2], the “Emax (% I)” value is 82 % I and a half-maximal effect (EC50) was put at 42.2 nM.

`CC[C@H](C)[C@H](NC(C)=O)C(=O)N[C@H](C(=O)N[C@@H](CC(C)C)C(=O)N[C@@H](CO)C(=O)N[C@@H](CC(C)C)C(=O)N[C@@H](CC(=O)O)C(=O)N[C@@H](C(=O)N1CCC[C@H]1C(=O)N[C@H](C(=O)N[C@@H](CCCCN)C(=O)N[C@@H](CC(C)C)C(=O)N[C@@H](CCCCNC(=O)CC[C@H](NC(=O)CCCCCCCCCCCCCCC(=O)O)C(=O)O)C(=O)N[C@@H](CCCCN)C(=O)N[C@H](C(=O)N[C@@H](CC(C)C)C(=O)N[C@@H](CC(C)C)C(=O)N[C@@H](CCC(=O)O)C(=O)N[C@@H](CCC(N)=O)C(=O)N[C@@H](CCC(=O)O)C(=O)N[C@@H](CCCCN)C(=O)N[C@@H](CCC(N)=O)C(=O)N[C@@H](CCCCN)C(=O)N[C@@H](CCCCN)C(=O)N[C@@H](CCC(N)=O)C(=O)N[C@@H](CCCNC(=N)N)C(=O)N[C@@H](CCC(=O)O)C(=O)N[C@@H](CCC(N)=O)C(=O)N[C@@H](C)C(=O)N[C@@H](CCC(=O)O)C(=O)N[C@H](C(=O)N[C@@H](CC(N)=O)C(=O)NC1(C(=O)N[C@@H](CCC(N)=O)C(=O)N[C@H](C(=O)N[C@@H](CC(C)C)C(=O)N[C@@H](C)C(=O)N[C@@H](CCC(N)=O)C(=O)N[C@H](C(N)=O)C(C)C)[C@@H](C)CC)CCCC1)[C@@H](C)O)[C@@H](C)CC)[C@@H](C)CC)C(C)C)C(C)C` [compound 60] (Ac-IVLSLD[dV]PIKLK([γGlu-C16 diacid])KILLEQEKQKKQREQAETN[Ac5c]QILAQV-NH2) had an EC50 in assay [1] of 0.34 nM. Also, in assay [2], the “Emax (% I)” value was found to be 5 % I and the EC50 is more than 250 nM.

B1: SEQ ID NO 109 (peptide)
peptide: Ac-IVLSLD[dV]PIKLK([AEEA-AEEA-γGlu-C18 diacid])KILLEQEKQKKQREQAETN[Api]QILAQV-NH2
SMILES: CC[C@H](C)[C@H](NC(C)=O)C(=O)N[C@H](C(=O)N[C@@H](CC(C)C)C(=O)N[C@@H](CO)C(=O)N[C@@H](CC(C)C)C(=O)N[C@@H](CC(=O)O)C(=O)N[C@@H](C(=O)N1CCC[C@H]1C(=O)N[C@H](C(=O)N[C@@H](CCCCN)C(=O)N[C@@H](CC(C)C)C(=O)N[C@@H](CCCCNC(=O)COCCOCCNC(=O)COCCOCCNC(=O)CC[C@H](NC(=O)CCCCCCCCCCCCCCCCC(=O)O)C(=O)O)C(=O)N[C@@H](CCCCN)C(=O)N[C@H](C(=O)N[C@@H](CC(C)C)C(=O)N[C@@H](CC(C)C)C(=O)N[C@@H](CCC(=O)O)C(=O)N[C@@H](CCC(N)=O)C(=O)N[C@@H](CCC(=O)O)C(=O)N[C@@H](CCCCN)C(=O)N[C@@H](CCC(N)=O)C(=O)N[C@@H](CCCCN)C(=O)N[C@@H](CCCCN)C(=O)N[C@@H](CCC(N)=O)C(=O)N[C@@H](CCCNC(=N)N)C(=O)N[C@@H](CCC(=O)O)C(=O)N[C@@H](CCC(N)=O)C(=O)N[C@@H](C)C(=O)N[C@@H](CCC(=O)O)C(=O)N[C@H](C(=O)N[C@@H](CC(N)=O)C(=O)NC1(C(=O)N[C@@H](CCC(N)=O)C(=O)N[C@H](C(=O)N[C@@H](CC(C)C)C(=O)N[C@@H](C)C(=O)N[C@@H](CCC(N)=O)C(=O)N[C@H](C(N)=O)C(C)C)[C@@H](C)CC)CCNCC1)[C@@H](C)O)[C@@H](C)CC)[C@@H](C)CC)C(C)C)C(C)C
For B1, the “Emax (% I)” value in assay [3] is 4%. In addition, in assay [4], the EC50 [nM] (cAMP) is 1 nM.

B2: SEQ ID NO 68 (peptide)
peptide: [NMeI]VLSLD[dV]PIKLK([γGlu-C16 diacid])KILLEQEKQKKQREQAETNAQILAQV-NH2
modifications: N-terminus assumed
SMILES: CC[C@H](C)[C@H](NC)C(=O)N[C@H](C(=O)N[C@@H](CC(C)C)C(=O)N[C@@H](CO)C(=O)N[C@@H](CC(C)C)C(=O)N[C@@H](CC(=O)O)C(=O)N[C@@H](C(=O)N1CCC[C@H]1C(=O)N[C@H](C(=O)N[C@@H](CCCCN)C(=O)N[C@@H](CC(C)C)C(=O)N[C@@H](CCCCNC(=O)CC[C@H](NC(=O)CCCCCCCCCCCCCCC(=O)O)C(=O)O)C(=O)N[C@@H](CCCCN)C(=O)N[C@H](C(=O)N[C@@H](CC(C)C)C(=O)N[C@@H](CC(C)C)C(=O)N[C@@H](CCC(=O)O)C(=O)N[C@@H](CCC(N)=O)C(=O)N[C@@H](CCC(=O)O)C(=O)N[C@@H](CCCCN)C(=O)N[C@@H](CCC(N)=O)C(=O)N[C@@H](CCCCN)C(=O)N[C@@H](CCCCN)C(=O)N[C@@H](CCC(N)=O)C(=O)N[C@@H](CCCNC(=N)N)C(=O)N[C@@H](CCC(=O)O)C(=O)N[C@@H](CCC(N)=O)C(=O)N[C@@H](C)C(=O)N[C@@H](CCC(=O)O)C(=O)N[C@H](C(=O)N[C@@H](CC(N)=O)C(=O)N[C@@H](C)C(=O)N[C@@H](CCC(N)=O)C(=O)N[C@H](C(=O)N[C@@H](CC(C)C)C(=O)N[C@@H](C)C(=O)N[C@@H](CCC(N)=O)C(=O)N[C@H](C(N)=O)C(C)C)[C@@H](C)CC)[C@@H](C)O)[C@@H](C)CC)[C@@H](C)CC)C(C)C)C(C)C
Consider B2, for which the “Emax (% I)” value in assay [3] worked out at 8%. Also, the EC50 [nM] (cAMP) in assay [4] was 0.05 nM.
